In patent US20050287600A1, “Method for screening for agents preventing aggregation of potentially amyloidogenic proteins” (priority 2002, published 2005):

Target: T1, human ataxin-3 (Q36) (Homo sapiens, UniProt P54252, INS305QQQQQQQQQQQQQQQQQQQQQQQQQQ)
T1 construct: glutathione S-transferase (GST), PreScission Protease site (N, cleaved yes); made in house; host or cells: Escherichia coli BL21 codon plus RIL (plasmid pGEX6P-1)
Assay: Heat-induced amyloid fibre formation / aggregation screening assay
Format: biochemical
Conditions: 10 microM Congo red; ataxin-3 (Q36) about 0.1 mg/ml in 10 mM sodium phosphate, pH 7.0, incubated at growing temperatures
Procedure: The screening procedure encompasses a) mixing the protein of interest with the compound to be assayed for its ability to prevent aggregation b) gradually increasing the temperature c) detecting the appearance of amyloid fibres by turbidimetric measurements, and/or by visual inspection of the mixture, and/or by determining its protein content before and after spinning down the aggregated protein. In the control sample, no compound is added so heating results in amyloid fibre formation and ensuing protein precipitation and clouding of the solution. In contrast, a compound capable of preventing aggregation also prevents or reduces clouding, along with protein precipitation on centrifugation. Protein concentration is typically about 0.1 mg per ml. Human ataxin-3 (Q36) was dissolved in 10 mM sodium phosphate, pH 7.0 at a final concentration of about 0.1 mg/ml and incubated at growing temperatures. […] Congo red is a well-known antiamyloidogenic compound. On incubating human ataxin-3 (Q36) in the presence of 10 microM Congo red and otherwise under the conditions depicted in example 3, protein aggregation phenomena observed in the absence of the dye were prevented.

T1 sequence (P54252 with tags, fused parts or gaps with the stated changes): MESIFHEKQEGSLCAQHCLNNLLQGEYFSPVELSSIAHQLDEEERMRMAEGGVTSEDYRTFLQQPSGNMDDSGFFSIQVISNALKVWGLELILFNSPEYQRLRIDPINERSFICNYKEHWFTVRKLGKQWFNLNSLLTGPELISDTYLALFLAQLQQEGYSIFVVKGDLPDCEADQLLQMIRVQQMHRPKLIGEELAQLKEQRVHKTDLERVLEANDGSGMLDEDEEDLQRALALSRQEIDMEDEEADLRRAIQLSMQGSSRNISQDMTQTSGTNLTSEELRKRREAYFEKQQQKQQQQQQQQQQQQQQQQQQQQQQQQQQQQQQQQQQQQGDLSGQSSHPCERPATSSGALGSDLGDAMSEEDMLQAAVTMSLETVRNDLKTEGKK

Compound: Nc1c(/N=N/c2ccc(-c3ccc(/N=N/c4cc(S(=O)(=O)O)c5ccccc5c4N)cc3)cc2)cc(S(=O)(=O)O)c2ccccc12 [Congo red]
- protein aggregation (amyloid fibre formation) on heating: prevented
